Results as given in patent publication US12371454B2, “Cyclic peptide compound having Kras inhibitory action” (priority 2019, dated 2025).
Starred links: 1 amine or outer side, 2 acyl side, 3 side chain; linkers in the order of their positions; H or OH if unused. Positions of bridges follow the written chain, without caps; N, C: chain ends. Non-standard residues stand in square brackets, D forms with d. Residues, ends and D or L forms follow the SMILES beside them. *: point of attachment. hPhe(3-Cl-4-CF3) = N[C@@H](CCc1ccc(C(F)(F)F)c(Cl)c1)C(=O)O; X19 = CC(C)(C)Oc1cc(CC[C@H](N[*:1])C(=O)[*:2])cc(Cl)c1Cl; X28 = CCCCOc1cc(CC[C@H](N[*:1])C(=O)[*:2])cc(Cl)c1Cl; NMePhe(4-CF3) = CN[C@@H](Cc1ccc(C(F)(F)F)cc1)C(=O)O; X29 = N#Cc1cc(CC[C@H](N[*:1])C(=O)[*:2])cc(Cl)c1Cl; X15 = COc1cc(CC[C@H](N[*:1])C(=O)[*:2])cc(Cl)c1Cl; X49 = Cn1ccc2cc(CC[C@H](N[*:1])C(=O)[*:2])ccc21; 3Oxa8azabicyclo(3.2.1)octane = C1CC2COCC1N2*; NMePhe(4-Me) = CN[C@@H](Cc1ccc(C)cc1)C(=O)O; NMeAla(cPent) = CN[C@@H](CC1CCCC1)C(=O)O; NMeGly(cPent) = CN[C@H](C(=O)O)C1CCCC1; NMeCha = CN[C@@H](CC1CCCCC1)C(=O)O; NMeChg = CN[C@H](C(=O)O)C1CCCCC1; Gly(cBu) = N[C@H](C(=O)O)C1CCC1; NMeD = CN[C@@H](CC(=O)O)C(=O)O; NMeL = CN[C@@H](CC(C)C)C(=O)O; NMeNva = CCC[C@H](NC)C(=O)O; NMeV = CN[C@H](C(=O)O)C(C)C; NMeAbu = CC[C@H](NC)C(=O)O; NMeS = CN[C@@H](CO)C(=O)O; Morpholide = C1CN(*)CCO1; NMeA = CN[C@@H](C)C(=O)O; Piperidide = C1CCN(*)CC1; Pyrrolidide = C1CCN(*)C1; Ac5c = NC1(C(=O)O)CCCC1; Aze = O=C(O)[C@@H]1CCN1; Sar = CNCC(=O)O; Propyl = CCC*

Assays:
[1] = target: T1, Kras and SOS1 (biotin-tagged human Kras loaded with GDP, His-tagged human SOS1) (Homo sapiens, UniProt P01116, G12D); assay: Protein-protein interaction inhibition between Kras and SOS1 (KrasGl2D-SOS PPI) using AlphaScreen; type: binding; conditions: AlphaScreen; biotin-tagged human Kras loaded with GDP, His-tagged human SOS1; read-out: KRAS G12D-SOS PPI IC50
T1 construct: made in house; host or cells: E. coli (stated for Kras only)
T1 sequence (P01116 1-188 isoform P01116-2 G12D): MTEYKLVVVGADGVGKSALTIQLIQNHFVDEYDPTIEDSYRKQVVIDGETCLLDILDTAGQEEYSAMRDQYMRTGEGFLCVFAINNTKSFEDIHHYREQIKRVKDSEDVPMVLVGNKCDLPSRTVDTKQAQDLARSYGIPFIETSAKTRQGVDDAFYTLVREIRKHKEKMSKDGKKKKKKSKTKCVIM
How it was run: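 Binding between SOS1 and Kras is detected as bead-proximity luminescence: illuminate Ni-conjugated donors (680 nm), collect 520-620 nm emission from streptavidin-conjugated acceptors; Kras carries biotin and GDP loaded after purification, SOS1 carries a His tag.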

[2] = tested on: Human pancreatic cancer cell line AsPC-1; assay: Measurement of AsPC-1 cell growth inhibition (AsPC-1 CGI); type: cell-based; conditions: 96 h
How it was run: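 AsPC-1 cells in 15% FBS RPMI-1640 were exposed to test compound for 96 hours at 37° C, with CellTiter-Glo as endpoint.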

Structure (SMILES) | IC50 [1] | IC50 [2]
CCC[C@H]1C(=O)N[C@@H]([C@@H](C)CC)C(=O)N(C)CC(=O)N(C)CC(=O)N(C)[C@@H](Cc2ccc(C(F)(F)F)cc2)C(=O)N(C)CC(=O)N[C@@H](CCc2ccc(C(F)(F)F)c(Cl)c2)C(=O)N2CCC[C@H]2C(=O)NC2(CCCC2)C(=O)N(C)[C@@H](C2CCCCC2)C(=O)N(C)[C@H](C(=O)N2C3CCC2COC3)CC(=O)N1C [Compound 1983] ([NMeNva]I[Sar][Sar][NMePhe(4-CF3)][Sar][hPhe(3-Cl-4-CF3)]P[Ac5c][NMeChg][NMeD]-{3Oxa8azabicyclo(3.2.1)octane}; lactam N-11) | 0.68 nM | 20 to 50 nM
CCC[C@H]1C(=O)N[C@@H]([C@@H](C)CC)C(=O)N(C)CC(=O)N(C)CC(=O)N(C)[C@@H](Cc2ccc(C(F)(F)F)cc2)C(=O)N(C)CC(=O)N[C@@H](CCc2ccc(C(F)(F)F)c(Cl)c2)C(=O)N2CCC[C@H]2C(=O)NC2(CCCC2)C(=O)N(C)[C@@H](C2CCCCC2)C(=O)N(C)[C@H](C(=O)N2CCCC2)CC(=O)N1C [Compound 1984] ([NMeNva]I[Sar][Sar][NMePhe(4-CF3)][Sar][hPhe(3-Cl-4-CF3)]P[Ac5c][NMeChg][NMeD]-Pyrrolidide; lactam N-11) | 0.38 nM | 20 to 50 nM
CC(C)C[C@H]1C(=O)N[C@@H](C2CCC2)C(=O)N(C)CC(=O)N(C)CC(=O)N(C)[C@@H](CC2CCCCC2)C(=O)N(C)CC(=O)N[C@@H](CCc2ccc(C(F)(F)F)c(Cl)c2)C(=O)N2CCC[C@H]2C(=O)NC2(CCCC2)C(=O)N(C)[C@@H](C2CCCCC2)C(=O)N(C)[C@H](C(=O)N2CCCC2)CC(=O)N1C [Compound 1988] ([NMeL][Gly(cBu)][Sar][Sar][NMeCha][Sar][hPhe(3-Cl-4-CF3)]P[Ac5c][NMeChg][NMeD]-Pyrrolidide; lactam N-11) | 0.69 nM | 50 to 100 nM
CC[C@H](C)[C@@H]1NC(=O)[C@H](CC)N(C)C(=O)C[C@@H](C(=O)N2C3CCC2COC3)N(C)C(=O)[C@H](C2CCCCC2)N(C)C(=O)C2(CCCC2)NC(=O)[C@@H]2CCCN2C(=O)[C@H](CCc2ccc(C(F)(F)F)c(Cl)c2)NC(=O)CN(C)C(=O)[C@H](Cc2ccc(C(F)(F)F)cc2)N(C)C(=O)CN(C)C(=O)CN(C)C1=O [Compound 1993] ([NMeAbu]I[Sar][Sar][NMePhe(4-CF3)][Sar][hPhe(3-Cl-4-CF3)]P[Ac5c][NMeChg][NMeD]-{3Oxa8azabicyclo(3.2.1)octane}; lactam N-11) | 0.64 nM | 50 to 100 nM
CCC[C@H]1C(=O)N[C@@H]([C@@H](C)CC)C(=O)N(C)CC(=O)N(C)CC(=O)N(C)[C@@H](Cc2ccc(C)cc2)C(=O)N(C)CC(=O)N[C@@H](CCc2ccc(C(F)(F)F)c(Cl)c2)C(=O)N2CCC[C@H]2C(=O)NC2(CCCC2)C(=O)N(C)[C@@H](C2CCCCC2)C(=O)N(C)[C@H](C(=O)N2C3CCC2COC3)CC(=O)N1C [Compound 1994] ([NMeNva]I[Sar][Sar][NMePhe(4-Me)][Sar][hPhe(3-Cl-4-CF3)]P[Ac5c][NMeChg][NMeD]-{3Oxa8azabicyclo(3.2.1)octane}; lactam N-11) | 0.58 nM | 50 to 100 nM
CCC[C@H]1C(=O)N[C@@H]([C@@H](C)CC)C(=O)N(C)CC(=O)N(C)CC(=O)N(C)[C@@H](CC2CCCCC2)C(=O)N(C)CC(=O)N[C@@H](CCc2ccc(C(F)(F)F)c(Cl)c2)C(=O)N2CCC[C@H]2C(=O)NC2(CCCC2)C(=O)N(C)[C@@H](C2CCCCC2)C(=O)N(C)[C@H](C(=O)N2CCOCC2)CC(=O)N1C [Compound 1996] ([NMeNva]I[Sar][Sar][NMeCha][Sar][hPhe(3-Cl-4-CF3)]P[Ac5c][NMeChg][NMeD]-Morpholide; lactam N-11) | 0.64 nM | 20 to 50 nM
CCC[C@H]1C(=O)N[C@@H]([C@@H](C)CC)C(=O)N(C)CC(=O)N(C)CC(=O)N(C)[C@@H](CC2CCCC2)C(=O)N(C)CC(=O)N[C@@H](CCc2ccc(C(F)(F)F)c(Cl)c2)C(=O)N2CCC[C@H]2C(=O)NC2(CCCC2)C(=O)N(C)[C@@H](C2CCCCC2)C(=O)N(C)[C@H](C(=O)N2CCOCC2)CC(=O)N1C [Compound 1998] ([NMeNva]I[Sar][Sar][NMeAla(cPent)][Sar][hPhe(3-Cl-4-CF3)]P[Ac5c][NMeChg][NMeD]-Morpholide; lactam N-11) | 0.75 nM | 100 to 500 nM
CC[C@H](C)[C@@H]1NC(=O)[C@H](CC)N(C)C(=O)C[C@@H](C(=O)N2CCOCC2)N(C)C(=O)[C@H](C2CCCCC2)N(C)C(=O)C2(CCCC2)NC(=O)[C@@H]2CCCN2C(=O)[C@H](CCc2ccc(C(F)(F)F)c(Cl)c2)NC(=O)CN(C)C(=O)[C@H](CC2CCCC2)N(C)C(=O)CN(C)C(=O)CN(C)C1=O [Compound 1999] ([NMeAbu]I[Sar][Sar][NMeAla(cPent)][Sar][hPhe(3-Cl-4-CF3)]P[Ac5c][NMeChg][NMeD]-Morpholide; lactam N-11) | 0.82 nM | 100 to 500 nM
CCC[C@H]1C(=O)N[C@@H]([C@@H](C)CC)C(=O)N(C)CC(=O)N(C)CC(=O)N(C)[C@@H](Cc2ccc(C)cc2)C(=O)N(C)CC(=O)N[C@@H](CCc2ccc(C(F)(F)F)c(Cl)c2)C(=O)N2CCC[C@H]2C(=O)NC2(CCCC2)C(=O)N(C)[C@@H](C2CCCCC2)C(=O)N(C)[C@H](C(=O)N2CCCC2)CC(=O)N1C [Compound 2004] ([NMeNva]I[Sar][Sar][NMePhe(4-Me)][Sar][hPhe(3-Cl-4-CF3)]P[Ac5c][NMeChg][NMeD]-Pyrrolidide; lactam N-11) | 0.33 nM | 20 to 50 nM
CCCOC[C@H]1C(=O)N(C)CC(=O)N[C@@H](CCc2ccc(C(F)(F)F)c(Cl)c2)C(=O)N2CCC[C@H]2C(=O)NC2(CCCC2)C(=O)N(C)[C@@H](C2CCCCC2)C(=O)N(C)[C@H](C(=O)N2CCCC2)CC(=O)N(C)[C@@H](CCC)C(=O)N[C@@H]([C@@H](C)CC)C(=O)N(C)CC(=O)N(C)CC(=O)N1C [Compound 2005] ([NMeNva]I[Sar][Sar][NMeS](Propyl)[Sar][hPhe(3-Cl-4-CF3)]P[Ac5c][NMeChg][NMeD]-Pyrrolidide; lactam N-11) | 0.64 nM | 50 to 100 nM
CCCOC[C@H]1C(=O)N(C)CC(=O)N[C@@H](CCc2ccc(C(F)(F)F)c(Cl)c2)C(=O)N2CCC[C@H]2C(=O)NC2(CCCC2)C(=O)N(C)[C@@H](C2CCCCC2)C(=O)N(C)[C@H](C(=O)N2CCCC2)CC(=O)N(C)[C@@H](CC(C)C)C(=O)N[C@@H]([C@@H](C)CC)C(=O)N(C)CC(=O)N(C)CC(=O)N1C [Compound 2006] ([NMeL]I[Sar][Sar][NMeS](Propyl)[Sar][hPhe(3-Cl-4-CF3)]P[Ac5c][NMeChg][NMeD]-Pyrrolidide; lactam N-11) | 0.62 nM | 50 to 100 nM
CC[C@H](C)[C@@H]1NC(=O)[C@H](C)N(C)C(=O)C[C@@H](C(=O)N2CCCCC2)N(C)C(=O)[C@H](C(C)C)N(C)C(=O)C2(CCCC2)NC(=O)[C@@H]2CCCN2C(=O)[C@H](CCc2cc(Cl)c(Cl)c(OC)c2)NC(=O)CN(C)C(=O)[C@H](CC2CCCCC2)N(C)C(=O)CN(C)C(=O)CN(C)C1=O [Compound 2061] ([NMeA]I[Sar][Sar][NMeCha][Sar][X15]P[Ac5c][NMeV][NMeD]-Piperidide; lactam N-11) | 21 nM | > 500 nM
CC[C@H](C)[C@@H]1NC(=O)[C@H](CC(C)C)N(C)C(=O)C[C@@H](C(=O)N2CCCCC2)N(C)C(=O)[C@H](C2CCCC2)N(C)C(=O)C2(CCCC2)NC(=O)[C@@H]2CCCN2C(=O)[C@H](CCc2ccc3c(ccn3C)c2)NC(=O)CN(C)C(=O)[C@H](CC2CCCCC2)N(C)C(=O)[C@@H]2CCN2C(=O)[C@H](C)N(C)C1=O [Compound 2064] ([NMeL]I[NMeA][Aze][NMeCha][Sar][X49]P[Ac5c][NMeGly(cPent)][NMeD]-Piperidide; lactam N-11) | 12 nM | 100 to 500 nM
CCCCOc1cc(CC[C@@H]2NC(=O)CN(C)C(=O)[C@H](CC3CCCCC3)N(C)C(=O)CN(C)C(=O)CN(C)C(=O)[C@H]([C@@H](C)CC)NC(=O)[C@H](C)N(C)C(=O)C[C@@H](C(=O)N3CCCCC3)N(C)C(=O)[C@H](C3CCCCC3)N(C)C(=O)C3(CCCC3)NC(=O)[C@@H]3CCCN3C2=O)cc(Cl)c1Cl [Compound 2066] ([NMeA]I[Sar][Sar][NMeCha][Sar][X28]P[Ac5c][NMeChg][NMeD]-Piperidide; lactam N-11) | 63 nM | > 500 nM
CC[C@H](C)[C@@H]1NC(=O)[C@H](C)N(C)C(=O)C[C@@H](C(=O)N2CCCCC2)N(C)C(=O)[C@H](C(C)C)N(C)C(=O)C2(CCCC2)NC(=O)[C@@H]2CCCN2C(=O)[C@H](CCc2cc(Cl)c(Cl)c(C#N)c2)NC(=O)CN(C)C(=O)[C@H](CC2CCCCC2)N(C)C(=O)CN(C)C(=O)CN(C)C1=O [Compound 2071] ([NMeA]I[Sar][Sar][NMeCha][Sar][X29]P[Ac5c][NMeV][NMeD]-Piperidide; lactam N-11) | 9.2 nM | > 500 nM
CC[C@H](C)[C@@H]1NC(=O)[C@H](C)N(C)C(=O)C[C@@H](C(=O)N2CCCCC2)N(C)C(=O)[C@H](C(C)C)N(C)C(=O)C2(CCCC2)NC(=O)[C@@H]2CCCN2C(=O)[C@H](CCc2cc(Cl)c(Cl)c(OC(C)(C)C)c2)NC(=O)CN(C)C(=O)[C@H](CC2CCCCC2)N(C)C(=O)CN(C)C(=O)CN(C)C1=O [Compound 2073] ([NMeA]I[Sar][Sar][NMeCha][Sar][X19]P[Ac5c][NMeV][NMeD]-Piperidide; lactam N-11) | 12 nM | > 500 nM
CC[C@H](C)[C@@H]1NC(=O)[C@H](C)N(C)C(=O)C[C@@H](C(=O)N2CCCCC2)N(C)C(=O)[C@H](C2CCCCC2)N(C)C(=O)C2(CCCC2)NC(=O)[C@@H]2CCCN2C(=O)[C@H](CCc2cc(Cl)c(Cl)c(C#N)c2)NC(=O)CN(C)C(=O)[C@H](CC2CCCCC2)N(C)C(=O)CN(C)C(=O)CN(C)C1=O [Compound 2075] ([NMeA]I[Sar][Sar][NMeCha][Sar][X29]P[Ac5c][NMeChg][NMeD]-Piperidide; lactam N-11) | 1.1 nM | > 500 nM
